From article PMC4764977, “AZD8797 is an allosteric non-competitive modulator of the human CX3CR1 receptor” (Biochemical Journal, 2016)

Experiments:
[1] = test system: untransfected CHO-K1 cells; assay: Dynamic mass redistribution (DMR), untransfected CHO-K1 cells; type: cell-based, Chinese hamster
CX3CR1 [2] = target: T1, CX3CR1 (Homo sapiens, UniProt P49238); assay: [35S]GTPγS accumulation assay, CHO-hCX3CR1 membranes; type: biochemical; set-up: host or cells: CHO-K1
T1 sequence (P49238 1-355): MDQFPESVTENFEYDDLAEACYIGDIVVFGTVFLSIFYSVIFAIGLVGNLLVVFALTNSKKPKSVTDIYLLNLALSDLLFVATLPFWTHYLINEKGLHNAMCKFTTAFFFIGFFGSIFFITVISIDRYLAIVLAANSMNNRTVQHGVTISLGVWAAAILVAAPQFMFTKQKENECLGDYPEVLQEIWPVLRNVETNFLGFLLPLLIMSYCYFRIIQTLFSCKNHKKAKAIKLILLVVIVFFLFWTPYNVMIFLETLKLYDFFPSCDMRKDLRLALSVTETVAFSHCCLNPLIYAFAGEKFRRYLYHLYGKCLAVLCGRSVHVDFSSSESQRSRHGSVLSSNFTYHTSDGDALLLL
Protocol: Adherent CHO-K1 cells stably expressing human CX3CR1 (CHO-hCX3CR1) were grown in F12 medium with GlutaMAX, 10% FBS (Sigma–Aldrich) and 400 μg·ml^−1 geneticin and harvested at 80% confluency. Cells were washed in PBS and lysed with an Ultra-Turrax Homogenizer in 50 mM Tris/HCl (pH 7.4) and 1 mM EDTA with Complete™ protease inhibitor (Roche). After centrifugation at 1000 g for 10 min, membranes were collected by ultracentrifugation at 100000 g for 45 min at 4°C. The membranes were resuspended in 10 mM Tris/HCl (pH 7.4), 1 mM EDTA and 10% sucrose, divided into aliquots, frozen in liquid nitrogen and stored in −80°C. Protein concentration was determined using the BCA method (Thermo Fisher Scientific).
0.56 μCi·ml^−1 [^35S]GTPγS and EC80 of CX3CL1 were then added. The plate was incubated at 30°C for 1 h and subsequently unbound [^35S]GTPγS was separated from bound by vacuum filtration to a Printed Filtermat B (PerkinElmer) using a Skatron Micro96 harvester and dried at 50°C for 1 h. The filters were soaked with a melt-on scintillator sheet (MeltiLex, PerkinElmer), sealed using a MeltiLex heat sealer and measured in a MicroBeta Trilux reader (PerkinElmer).

CX3CR1 [3] = target: T1, CX3CR1; assay: PathHunter β-arrestin recruitment assay, CHO-K1 CX3CR1 β-arrestin cell line; type: cell-based; set-up: host or cells: CHO-K1
Protocol: β-Arrestin recruitment was measured using the PathHunter™ enzyme fragment complementation assay from DiscoveRx and carried out according to the manufacturer's instructions. In short, 3500 cells per well in Opti-MEM were incubated together with different concentrations of AZD8797 and CX3CL1 in a 384-well plate. After 90 min of incubation at 37°C, detection reagent was added and incubation continued for 1 h at room temperature, before reading the plate with a Victor^2 luminescence plate reader (PerkinElmer). As in the [^35S]GTPγS binding assay, the final DMSO concentration was held constant at 1%.

CX3CR1 [4] = target: T1, CX3CR1; assay: [3H]AZD8797 competition binding, CHO-hCX3CR1 membranes; set-up: host or cells: CHO-K1; details: 2 nM [3H]AZD8797, n=7
Protocol: Adherent CHO-K1 cells stably expressing human CX3CR1 (CHO-hCX3CR1) were grown in F12 medium with GlutaMAX, 10% FBS (Sigma–Aldrich) and 400 μg·ml^−1 geneticin and harvested at 80% confluency. Cells were washed in PBS and lysed with an Ultra-Turrax Homogenizer in 50 mM Tris/HCl (pH 7.4) and 1 mM EDTA with Complete™ protease inhibitor (Roche). […] Protein concentration was determined using the BCA method (Thermo Fisher Scientific). […] The filter plate was washed in ice-cold 25 mM HEPES (pH 7.4), 5 mM MgCl2, 1 mM CaCl2 and 500 mM NaCl and dried at 50°C for 1 h. Scintillation cocktail, Optiphase Supermix (PerkinElmer) was added to each well and the radioactivity was measured using a MicroBeta Trilux reader (PerkinElmer). All analysis and calculations were performed using GraphPad Prism 6.01. Functional and competition binding data were analysed using non-linear regression and fitted to a sigmoidal dose-response with variable slope according to the following equation: […] where Y is the amount of radioligand bound (cpm) or functional effect, Top denotes maximal asymptotic binding, and Bottom denotes the minimal asymptotic binding. XC50 is either the EC50 or the IC50 value, and X is the logarithm of the test compound concentration. Ki values were calculated from IC50 values using the Cheng–Prusoff equation: […]

CX3CR1 [5] = target: T1, CX3CR1; assay: 125I-CX3CL1 kinetic radioligand binding, CHO-hCX3CR1 membranes; set-up: host or cells: CHO-K1
Protocol: Incubation times ranged from 2.5 min to 4 h. For the association experiments, the radioligand data were fitted to the following monophasic exponential association equation and the association rate (kon) was calculated using the added amounts of radioligand (L) and dissociation rate (koff) as constants. koff was measured in separate dissociation experiments. The dissociation data were fitted to the monophasic exponential decay equation: where Y0 is the binding (cpm) at time zero, X is the time and NS is the (non-specific) binding at infinite times. […] Multiple compound dissociation data were fitted to the biphasic exponential decay equation: […]

CX3CR1 [6] = target: T1, CX3CR1; assay: 125I-CX3CL1 competition assay, HEK293 cells co-transfected with Gqi5-protein (Karlstrom et al.); type: binding; set-up: host or cells: CHO-K1; details: HEK293 Gqi5 vs CHO-hCX3CR1 membranes
[7] = in presence of 10 μM AZD8797 + 100 nM CX3CL1, two-phase model, n=3

`CC(C)C[C@H](CO)Nc1nc(S[C@@H](C)c2ccccc2)nc2nc(N)sc12` [AZD8797] was tested, and the “DMR response in untransfected cells” value [1] was 38 % of AZD8797 effect in transfected cells, the “DMR response in untransfected cells (words)” value [1] was “only weakly responded” and the “Agonistic effect in [35S]GTPγS accumulation” value (CX3CR1 [2]; compound alone, results not shown) was “No agonistic effect”. The IC50 (CX3CR1 [2]; response from 2 nM CX3CL1 (EC80), n > 24, read-out: IC50, inhibition of CX3CL1-induced [35S]GTPγS accumulation) was 340 nM, the “Increase of CX3CL1 efficacy in β-arrestin recruitment” value (CX3CR1 [3]; 16 and 140 nM AZD8797, efficacy enhanced, not potency) was about 2 fold and the “Effect on β-arrestin recruitment, compound alone” value (CX3CR1 [3]; AZD8797 alone) was “no effect”. The “CX3CL1-induced β-arrestin recruitment at higher concentrations” value (CX3CR1 [3]; higher concentrations of AZD8797) was “almost abolished”, the Ki (CX3CR1 [4]) was 7.3 nM and the “k1off of 125I-CX3CL1 dissociation (fast first phase)” value (CX3CR1 [5]; [7]) was 0.45 min⁻¹. For the same molecule, the “k2off of 125I-CX3CL1 dissociation (second slower phase)” value (CX3CR1 [5]; [7]) was 0.0060 min⁻¹, the “Effect on 125I-CX3CL1 association rate (kon)” value (CX3CR1 [5]; results not shown) was “no effect” and the “Effect on maximal binding of 125I-CX3CL1 in association experiments” value (CX3CR1 [5]; results not shown) was “decreased”. For the same molecule, the “Higher affinity than in this paper's 125I-CX3CL1 competition assay” value (CX3CR1 [6]) was about 100 fold.
